Test results from US9393232B2 (BeiGene, Ltd., priority 2013, dated 2016).
Where two headings read alike, the source gives them in different places.

Legend:
MV4-11 = MV4-11 (3 Days) EC50; type: cell-based
[1] = molecular target: Recombinant human BRD4(1-477) (Homo sapiens (Human), UniProt O60885); test: BRD4 TR-FRET biochemical IC50 assay; type: binding; conditions: tetra-acetylated histone peptide

Structure (SMILES): Cc1noc(C)c1-c1ccc2c(c1)C(O)(c1ccsc1)C(=O)N2 (centres unmarked) [Compound 4.1, 5-(3,5-Dimethylisoxazol-4-yl)-3-hydroxy-3-(thiophen-3-yl)indolin-2-one]
- EC50 (MV4-11; Homo sapiens, 72 h): 0.14 µM
- IC50 ([1]; TR-FRET, read-out: BRD4 IC50): 0.1 µM

Structure (SMILES): Cc1noc(C)c1-c1ccc2c(c1)C(C1CCCC1)(N1CCOCC1)C(=O)N2 (centres unmarked) [Compound 2.34, 3-cyclopentyl-5-(3,5-dimethylisoxazol-4-yl)-3-morpholinoindolin-2-one]
- EC50 (MV4-11; Homo sapiens, MV4-11, 72 h): 0.438 µM
- IC50 ([1]; TR-FRET, read-out: BRD4 IC50): 0.12 µM

Structure (SMILES): Cc1noc(C)c1-c1ccc2c(c1)C(OCCO)(C1CCCCC1)C(=O)N2 (centres unmarked) [Compound 1.33, 3-Cyclohexyl-5-(3,5-dimethylisoxazol-4-yl)-3-(2-hydroxyethoxy)indolin-2-one]
- EC50 (MV4-11; Homo sapiens, MV4-11, 72 h): 0.307 µM

Structure (SMILES): Cc1noc(C)c1-c1ccc2c(c1)C(N)(c1ccccc1)C(=O)N2 (single isomer, unassigned) [Compound 2.2b, 3-amino-5-(3,5-dimethylisoxazol-4-yl)-3-phenylindolin-2-one]
- EC50 (MV4-11): > 10 µM
- IC50 ([1]; TR-FRET, read-out: BRD4 IC50): 3.6 µM

Structure (SMILES): Cc1ccc(C2(O)C(=O)Nc3ccc(-c4c(C)noc4C)cc32)cc1 (centres unmarked) [Compound 1.5, 5-(3,5-dimethylisoxazol-4-yl)-3-hydroxy-3-p-tolylindolin-2-one]
- EC50 (MV4-11; Homo sapiens, 72 h): 0.285 µM
- IC50 ([1]; TR-FRET, read-out: BRD4 IC50): 0.18 µM

Structure (SMILES): Cc1noc(C)c1-c1ccc2c(c1)C(c1ccsc1)(N1CCC[C@H](O)C1)C(=O)N2 (single isomer, unassigned) [Compound 4.10a]
- EC50 (MV4-11; Homo sapiens, MV4-11, 72 h): 0.072 µM

Structure (SMILES): Cc1noc(C)c1-c1ccc2c(c1)C(N[C@@H](CO)C(C)C)(c1ccccc1)C(=O)N2 (single isomer, unassigned) [Compound 2.11b]
- EC50 (MV4-11; Homo sapiens, MV4-11, 72 h): 0.18 µM
- IC50 ([1]; TR-FRET, read-out: BRD4 IC50): 0.15 µM

Structure (SMILES): Cc1noc(C)c1-c1ccc2c(c1)C(O)(c1ccc(F)c(F)c1)C(=O)N2 (centres unmarked) [Compound 1.8, 3-(3,4-difluorophenyl)-5-(3,5-dimethylisoxazol-4-yl)-3-hydroxyindolin-2-one]
- EC50 (MV4-11; Homo sapiens, 72 h): 0.425 µM
- IC50 ([1]; TR-FRET, read-out: BRD4 IC50): 0.2 µM

Structure (SMILES): Cc1noc(C)c1-c1ccc2c(c1)C(CCCN1CCN(C)CC1)(c1ccccc1)C(=O)N2 (centres unmarked) [Compound 3.7, 5-(3,5-Dimethylisoxazol-4-yl)-3-(3-(4-methylpiperazin-1-yl)propyl)-3-phenylindolin-2-one]
- EC50 (MV4-11; Homo sapiens, MV4-11, 72 h): 0.116 µM
- IC50 ([1]; TR-FRET, read-out: BRD4 IC50): 0.053 µM

Structure (SMILES): Cc1noc(C)c1-c1ccc2c(c1)C(c1ccccc1)(N1CCC(O)CC1)C(=O)N2 (centres unmarked) [Compound 2.4, 5-(3,5-dimethylisoxazol-4-yl)-3-(4-hydroxypiperidin-1-yl)-3-phenylindolin-2-one]
- EC50 (MV4-11; Homo sapiens, MV4-11, 72 h): 0.076 µM
- IC50 ([1]; TR-FRET, read-out: BRD4 IC50): 0.036 µM

Structure (SMILES): Cc1noc(C)c1-c1ccc2c(c1)C(O)(C1CCCCC1)C(=O)N2 (centres unmarked) [Compound 1.15, 3-cyclohexyl-5-(3,5-dimethylisoxazol-4-yl)-3-hydroxyindolin-2-one]
- EC50 (MV4-11; Homo sapiens, 72 h): 0.183 µM
- IC50 ([1]; TR-FRET, read-out: BRD4 IC50): 0.077 µM

Structure (SMILES): Cc1noc(C)c1-c1ccc2c(c1)C(N)(c1ccccc1)C(=O)N2 (single isomer, unassigned) [Compound 2.2a, 3-amino-5-(3,5-dimethylisoxazol-4-yl)-3-phenylindolin-2-one]
- EC50 (MV4-11): 0.159 µM
- IC50 ([1]; TR-FRET, read-out: BRD4 IC50): 0.024 µM

Structure (SMILES): Cc1ccccc1C1(O)C(=O)Nc2ccc(-c3c(C)noc3C)cc21 (centres unmarked) [Compound 1.7, 5-(3,5-dimethylisoxazol-4-yl)-3-hydroxy-3-o-tolylindolin-2-one]
- EC50 (MV4-11; Homo sapiens, 72 h): 1.5 µM
- IC50 ([1]; TR-FRET, read-out: BRD4 IC50): 0.57 µM

Structure (SMILES): Cc1noc(C)c1-c1ccc2c(c1)C(NCCO)(c1ccccc1)C(=O)N2 (centres unmarked) [Compound 2.1, 5-(3,5-dimethylisoxazol-4-yl)-3-(2-hydroxyethylamino)-3-phenylindolin-2-one]
- EC50 (MV4-11; Homo sapiens, MV4-11, 72 h): 0.078 µM
- IC50 ([1]; TR-FRET, read-out: BRD4 IC50): 0.07 µM

Structure (SMILES): Cc1noc(C)c1-c1ccc2c(c1)C(N[C@H](CO)C(C)C)(C1CCCCC1)C(=O)N2 (single isomer, unassigned) [Compound 2.19b]
- EC50 (MV4-11; Homo sapiens, MV4-11, 72 h): 0.282 µM
- IC50 ([1]; TR-FRET, read-out: BRD4 IC50): 0.17 µM

Structure (SMILES): COc1ccc(C2(O)C(=O)Nc3ccc(-c4c(C)noc4C)cc32)cc1 (centres unmarked) [Compound 1.9, 5-(3,5-dimethylisoxazol-4-yl)-3-hydroxy-3-(4-methoxyphenyl)indolin-2-one]
- EC50 (MV4-11; Homo sapiens, 72 h): 0.536 µM
- IC50 ([1]; TR-FRET, read-out: BRD4 IC50): 0.41 µM

Structure (SMILES): Cc1noc(C)c1-c1ccc2c(c1)C(C1CCCC1)(N1CCN(C)CC1)C(=O)N2 (centres unmarked) [Compound 2.36, 3-cyclopentyl-5-(3,5-dimethylisoxazol-4-yl)-3-(4-methylpiperazin-1-yl)indolin-2-one]
- EC50 (MV4-11; Homo sapiens, MV4-11, 72 h): 0.596 µM

Structure (SMILES): Cc1noc(C)c1-c1ccc2c(c1)C(c1ccccc1)(N1CCNCC1)C(=O)N2 (centres unmarked) [Compound 2.38, 5-(3,5-dimethylisoxazol-4-yl)-3-phenyl-3-(piperazin-1-yl)indolin-2-one]
- EC50 (MV4-11; Homo sapiens, MV4-11, 72 h): 0.504 µM
- IC50 ([1]; TR-FRET, read-out: BRD4 IC50): 0.12 µM

Structure (SMILES): Cc1noc(C)c1-c1ccc2c(c1)C(c1ccccc1)(N1CCC[C@@H](O)C1)C(=O)N2 (stereo partly drawn) [Compound 2.17, 5-(3,5-dimethylisoxazol-4-yl)-3-((R)-3-hydroxypiperidin-1-yl)-3-phenylindolin-2-one]
- EC50 (MV4-11; Homo sapiens, MV4-11, 72 h): 0.363 µM

Structure (SMILES): Cc1noc(C)c1-c1ccc2c(c1)C(c1ccsc1)(N1CCC[C@H](O)C1)C(=O)N2 (single isomer, unassigned) [Compound 4.10b]
- EC50 (MV4-11): 0.056 µM

Structure (SMILES): Cc1noc(C)c1-c1ccc2c(c1)C(N)(c1ccccc1)C(=O)N2 (centres unmarked) [Compound 2.2, 3-amino-5-(3,5-dimethylisoxazol-4-yl)-3-phenylindolin-2-one]
- EC50 (MV4-11; Homo sapiens, MV4-11, 72 h): 0.283 µM

Structure (SMILES): C=CCCCC1(O)C(=O)Nc2ccc(-c3c(C)noc3C)cc21 (centres unmarked) [Compound 1.25, 5-(3,5-dimethylisoxazol-4-yl)-3-hydroxy-3-(pent-4-enyl)indolin-2-one]
- EC50 (MV4-11; Homo sapiens, MV4-11, 72 h): 1.54 µM

Structure (SMILES): Cc1noc(C)c1-c1ccc2c(c1)C(c1ccsc1)(N1CCC[C@@H](O)C1)C(=O)N2 (single isomer, unassigned) [Compound 4.9b]
- EC50 (MV4-11): 0.039 µM

Structure (SMILES): Cc1noc(C)c1-c1ccc2c(c1)C(c1ccsc1)(N1CCCC(O)C1)C(=O)N2 (centres unmarked) [Compound 4.8, 5-(3,5-dimethylisoxazol-4-yl)-3-(3-hydroxypiperidin-1-yl)-3-(thiophen-3-yl)indolin-2-one]
- EC50 (MV4-11; Homo sapiens, MV4-11, 72 h): 0.042 µM

Structure (SMILES): Cc1noc(C)c1-c1ccc2c(c1)C(c1ccsc1)(N1CCC[C@@H](O)C1)C(=O)N2 (single isomer, unassigned) [Compound 4.9a]
- EC50 (MV4-11; Homo sapiens, MV4-11, 72 h): 0.054 µM

Structure (SMILES): Cc1noc(C)c1-c1ccc2c(c1)C(C1CCCCC1)(N1CCN(C)CC1)C(=O)N2 (centres unmarked) [Compound 2.26, 3-cyclohexyl-5-(3,5-dimethylisoxazol-4-yl)-3-(4-methylpieprazin-1-yl)indolin-2-one]
- EC50 (MV4-11; Homo sapiens, MV4-11, 72 h): 0.204 µM

Structure (SMILES): Cc1noc(C)c1-c1ccc2c(c1)C(c1ccccc1)(N1CCCC(O)C1)C(=O)N2 (centres unmarked) [Compound 2.15, 5-(3,5-dimethylisoxazol-4-yl)-3-(3-hydroxypiperidin-1-yl)-3-phenylindolin-2-one]
- EC50 (MV4-11; Homo sapiens, MV4-11, 72 h): 0.095 µM

Structure (SMILES): Cc1noc(C)c1-c1ccc2c(c1)C(O)(C(C)(C)C)C(=O)N2 (centres unmarked) [Compound 1.26, 3-tert-butyl-5-(3,5-dimethylisoxazol-4-yl)-3-hydroxyindolin-2-one]
- IC50 ([1]; TR-FRET, read-out: BRD4 IC50): 3.2 µM

Structure (SMILES): Cc1noc(C)c1-c1ccc2c(c1)C(O)(c1ccsc1)C(=O)N2 (single isomer, unassigned) [Compound 4.1a, 5-(3,5-Dimethylisoxazol-4-yl)-3-hydroxy-3-(thiophen-3-yl)indolin-2-one]
- IC50 ([1]; BRD4 IC50, TR-FRET): 4.9 µM

Structure (SMILES): Cc1noc(C)c1-c1ccc2c(c1)C(N)(c1ccc(F)cc1)C(=O)N2 (centres unmarked) [Compound 2.59, 3-amino-5-(3,5-dimethylisoxazol-4-yl)-3-(4-fluorophenyl)indolin-2-one]
- IC50 ([1]; TR-FRET, read-out: BRD4 IC50): 0.097 µM

Structure (SMILES): Cc1noc(C)c1-c1ccc2c(c1)C(c1ccccc1)(N1CCN(CCCO)CC1)C(=O)N2 (centres unmarked) [Compound 2.49, 5-(3,5-Dimethylisoxazol-4-yl)-3-(4-(3-hydroxypropyl)piperazin-1-yl)-3-phenylindolin-2-one]
- IC50 ([1]; TR-FRET, read-out: BRD4 IC50): 0.084 µM

Structure (SMILES): Cc1noc(C)c1-c1ccc2c(c1)C(O)(C#Cc1ccccc1)C(=O)N2 (centres unmarked) [Compound 1.12, 5-(3,5-dimethylisoxazol-4-yl)-3-hydroxy-3-(phenylethynyl)indolin-2-one]
- IC50 ([1]; TR-FRET, read-out: BRD4 IC50): 2.3 µM

Structure (SMILES): Cc1noc(C)c1-c1ccc2c(c1)C(N)(c1ccc(F)cc1)C(=O)N2 (single isomer, unassigned) [Compound 2.59b, 3-amino-5-(3,5-dimethylisoxazol-4-yl)-3-(4-fluorophenyl)indolin-2-one]
- IC50 ([1]; TR-FRET, read-out: BRD4 IC50): 0.036 µM

Structure (SMILES): COC(=O)[C@@H](Cc1cnc[nH]1)NC1(c2ccccc2)C(=O)Nc2ccc(-c3c(C)noc3C)cc21 (stereo partly drawn) [Compound 2.56, (2R)-Methyl 2-(5-(3,5-dimethylisoxazol-4-yl)-2-oxo-3-phenylindolin-3-ylamino)-3-(1h-imidazol-5-yl)propanoate]
- IC50 ([1]; TR-FRET, read-out: BRD4 IC50): 0.26 µM

Structure (SMILES): Cc1noc(C)c1-c1ccc2c(c1)C(c1ccccc1)(N1CCC[C@@H]1CO)C(=O)N2 (some centres unmarked) [Compound 2.55, 5-(3,5-Dimethylisoxazol-4-yl)-3-((r)-2-(hydroxymethyl)pyrrolidin-1-yl)-3-phenylindolin-2-one]
- IC50 ([1]; TR-FRET, read-out: BRD4 IC50): 0.11 µM

Structure (SMILES): COC(=O)[C@H](Cc1cnc[nH]1)NC1(c2ccccc2)C(=O)Nc2ccc(-c3c(C)noc3C)cc21 (stereo partly drawn) [Compound 2.57, (2S)-Methyl 2-(5-(3,5-dimethylisoxazol-4-yl)-2-oxo-3-phenylindolin-3-ylamino)-3-(1h-imidazol-5-yl)propanoate]
- IC50 ([1]; TR-FRET, read-out: BRD4 IC50): 0.09 µM

Structure (SMILES): Cc1noc(C)c1-c1ccc2c(c1)C(O)(c1ccccc1)C(=O)N2 (single isomer, unassigned) [Compound 1.1b, 5-(3,5-dimethylisoxazol-4-yl)-3-hydroxy-3-phenylindolin-2-one]
- IC50 ([1]; TR-FRET, read-out: BRD4 IC50): 7 µM

Structure (SMILES): Cc1noc(C)c1-c1ccc2c(c1)C(c1ccccc1)(N1CC[C@@H](NC(=O)OC(C)(C)C)C1)C(=O)N2 (some centres unmarked) [Compound 2.41, Tert-butyl (3r)-1-(5-(3,5-dimethylisoxazol-4-yl)-2-oxo-3-phenylindolin-3-yl)pyrrolidin-3-ylcarbamate]
- IC50 ([1]; TR-FRET, read-out: BRD4 IC50): 0.44 µM

Structure (SMILES): Cc1noc(C)c1-c1ccc2c(c1)[C@@](N)(C1CCCCC1)C(=O)N2 [Compound 2.37a, (S)-3-amino-3-cyclohexyl-5-(3,5-dimethylisoxazol-4-yl)indolin-2-one]
- IC50 ([1]; TR-FRET, read-out: BRD4 IC50): 0.054 µM

Structure (SMILES): Cc1noc(C)c1-c1ccc2c(c1)C(N)(c1ccc(F)cc1)C(=O)N2 (single isomer, unassigned) [Compound 2.59a, 3-amino-5-(3,5-dimethylisoxazol-4-yl)-3-(4-fluorophenyl)indolin-2-one]
- IC50 ([1]; TR-FRET, read-out: BRD4 IC50): 4.1 µM

Structure (SMILES): C=CCCC1(O)C(=O)Nc2ccc(-c3c(C)noc3C)cc21 (centres unmarked) [Compound 1.24, 3-(but-3-enyl)-5-(3,5-dimethylisoxazol-4-yl)-3-hydroxyindolin-2-one]
- EC50 (MV4-11; Homo sapiens, MV4-11, 72 h): 0.934 µM
